According to patent US20250163104A1, “MACROCYCLIC IMMUNOMODULATORS” (priority 2021, published 2025):
Where a SMILES comes first, the peptide text is derived from it. Bridges are numbered along the chain shown (N, C = ends). [ ]: non-standard residue; d: D form. The star is where a group is joined. Bip = N[C@@H](Cc1ccc(-c2ccccc2)cc1)C(=O)O; Ala(cPent) = N[C@@H](CC1CCCC1)C(=O)O; Gly(octyl) = CCCCCCCC[C@H](N)C(=O)O; Ala(cPr) = N[C@@H](CC1CC1)C(=O)O; hPhe = N[C@@H](CCc1ccccc1)C(=O)O; Cha = N[C@@H](CC1CCCCC1)C(=O)O; Cit = NC(=O)NCCC[C@H](N)C(=O)O; Ahp(2) = CCCCC[C@H](N)C(=O)O; Chg = N[C@H](C(=O)O)C1CCCCC1; Phg = N[C@H](C(=O)O)c1ccccc1; Tle = CC(C)(C)[C@H](N)C(=O)O; Carboxymethyl = O=C(O)C*; Nle = CCCC[C@H](N)C(=O)O; Orn = NCCC[C@H](N)C(=O)O; Dab = NCC[C@H](N)C(=O)O; Abu = CC[C@H](N)C(=O)O; Dap = NC[C@H](N)C(=O)O

Each compound was assayed against T1, human PD-1 / PD-L1-Ig binding on Jurkat cell line over-expressing human PD-1 (Jurkat-PD-1) (Homo sapiens, UniProt Q15116) (assay: Jurkat-PD-1 Cell Binding High-Content Screening Assay (CBA)). Details: Jurkat-PD-1 cells, PE-labeled PD-L1-Ig 20 nM final; read-out: Jurkat HPD1_PDL1 IC50.
T1 construct: expressed in transfected cells; host or cells: Jurkat
Assay type: cell-based
Summary of the method: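 Binding of fluorescent PD-L1-Ig (phycoerythrin linked via the Ig tag, 20 nM final) to PD-1-overexpressing Jurkat cells was imaged after a 2 h, 37° C compound pretreatment and 1 hour ligand incubation.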

T1 sequence (Q15116 25-288): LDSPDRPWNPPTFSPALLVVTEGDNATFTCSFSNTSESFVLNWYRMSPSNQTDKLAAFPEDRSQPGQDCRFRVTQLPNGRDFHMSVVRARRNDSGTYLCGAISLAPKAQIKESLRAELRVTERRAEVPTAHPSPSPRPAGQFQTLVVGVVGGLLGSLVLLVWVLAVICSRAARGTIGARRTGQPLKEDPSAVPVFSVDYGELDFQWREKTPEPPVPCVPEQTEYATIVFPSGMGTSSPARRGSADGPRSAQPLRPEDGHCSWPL

IC50 [nM] | SMILES
121 | COc1ccc(C[C@@H]2NC(=O)[C@H](CCN)NC(=O)[C@@H](CC(C)C)NC(=O)[C@H](CCCN)NC(=O)[C@H](CCCNC(N)=O)NC(=O)[C@H](Cc3ccc(-c4ccccc4)cc3)NC(=O)[C@H](C(C)C)NC(=O)[C@H](Cc3c[nH]c4ccccc34)NC(=O)[C@H](CC(=O)O)NC(=O)[C@H](Cc3ccc(OCC(=O)O)cc3)NC(=O)[C@H](CN)NC(=O)CSC[C@@H](C(=O)N[C@@H](C)C(N)=O)NC(=O)[C@H]([C@@H](C)O)NC(=O)[C@H](C(C)C)NC2=O)cc1 [Compound 1351] ({CH2CO}-[Dap]Y(Carboxymethyl)DWV[Bip][Cit][Orn][dL][Dab]Y(Me)VTCA-NH2; thioether N-14)
110 | CCCCCCCC[C@@H]1NC(=O)[C@H](CCN)NC(=O)[C@@H](CC(C)C)NC(=O)[C@H](CCCN)NC(=O)[C@H](CCCNC(N)=O)NC(=O)[C@H](Cc2ccc(-c3ccccc3)cc2)NC(=O)[C@H](C(C)C)NC(=O)[C@H](Cc2c[nH]c3ccccc23)NC(=O)[C@H](CC(=O)O)NC(=O)[C@H](Cc2ccc(OCC(=O)O)cc2)NC(=O)[C@H](CN)NC(=O)CSC[C@@H](C(=O)N[C@@H](C)C(N)=O)NC(=O)[C@H]([C@@H](C)O)NC(=O)[C@H](C(C)C)NC1=O [Compound 1352] ({CH2CO}-[Dap]Y(Carboxymethyl)DWV[Bip][Cit][Orn][dL][Dab][Gly(octyl)]VTCA-NH2; thioether N-14)
10.9 | CC(C)C[C@H]1NC(=O)[C@H](CCCN)NC(=O)[C@H](CCCNC(N)=O)NC(=O)[C@H](Cc2ccc(-c3ccccc3)cc2)NC(=O)[C@H](CC2CCCC2)NC(=O)[C@H](Cc2c[nH]c3ccccc23)NC(=O)[C@H](CC(=O)O)NC(=O)[C@H](Cc2ccc(OCC(=O)O)cc2)NC(=O)[C@H](CN)NC(=O)CSC[C@@H](C(=O)N[C@@H](C)C(N)=O)NC(=O)[C@H]([C@@H](C)O)NC(=O)[C@H](C(C)C)NC(=O)[C@H](CC2CCCCC2)NC(=O)[C@H](CCN)NC1=O [Compound 1353] ({CH2CO}-[Dap]Y(Carboxymethyl)DW[Ala(cPent)][Bip][Cit][Orn][dL][Dab][Cha]VTCA-NH2; thioether N-14)
13.9 | CC(C)C[C@H]1NC(=O)[C@H](CCCN)NC(=O)[C@H](CCCNC(N)=O)NC(=O)[C@H](Cc2ccc(-c3ccccc3)cc2)NC(=O)[C@H](CC2CC2)NC(=O)[C@H](Cc2c[nH]c3ccccc23)NC(=O)[C@H](CC(=O)O)NC(=O)[C@H](Cc2ccc(OCC(=O)O)cc2)NC(=O)[C@H](CN)NC(=O)CSC[C@@H](C(=O)N[C@@H](C)C(N)=O)NC(=O)[C@H]([C@@H](C)O)NC(=O)[C@H](C(C)C)NC(=O)[C@H](CC2CCCCC2)NC(=O)[C@H](CCN)NC1=O [Compound 1354] ({CH2CO}-[Dap]Y(Carboxymethyl)DW[Ala(cPr)][Bip][Cit][Orn][dL][Dab][Cha]VTCA-NH2; thioether N-14)
8.2 | CCC[C@@H]1NC(=O)[C@H](Cc2c[nH]c3ccccc23)NC(=O)[C@H](CC(=O)O)NC(=O)[C@H](Cc2ccc(OCC(=O)O)cc2)NC(=O)[C@H](CN)NC(=O)CSC[C@@H](C(=O)N[C@@H](C)C(N)=O)NC(=O)[C@H]([C@@H](C)O)NC(=O)[C@H](C(C)C)NC(=O)[C@H](CC2CCCCC2)NC(=O)[C@H](CCN)NC(=O)[C@@H](CC(C)C)NC(=O)[C@H](CCCN)NC(=O)[C@H](CCCNC(N)=O)NC(=O)[C@H](Cc2ccc(-c3ccccc3)cc2)NC1=O [Compound 1355]
5.5 | CC[C@@H]1NC(=O)[C@H](Cc2c[nH]c3ccccc23)NC(=O)[C@H](CC(=O)O)NC(=O)[C@H](Cc2ccc(OCC(=O)O)cc2)NC(=O)[C@H](CN)NC(=O)CSC[C@@H](C(=O)N[C@@H](C)C(N)=O)NC(=O)[C@H]([C@@H](C)O)NC(=O)[C@H](C(C)C)NC(=O)[C@H](CC2CCCCC2)NC(=O)[C@H](CCN)NC(=O)[C@@H](CC(C)C)NC(=O)[C@H](CCCN)NC(=O)[C@H](CCCNC(N)=O)NC(=O)[C@H](Cc2ccc(-c3ccccc3)cc2)NC1=O [Compound 1356] ({CH2CO}-[Dap]Y(Carboxymethyl)DW[Abu][Bip][Cit][Orn][dL][Dab][Cha]VTCA-NH2; thioether N-14)
4.8 | CC(C)C[C@H]1NC(=O)[C@H](CCCN)NC(=O)[C@H](CCCNC(N)=O)NC(=O)[C@H](Cc2ccc(-c3ccccc3)cc2)NC(=O)[C@H](C2CCCCC2)NC(=O)[C@H](Cc2c[nH]c3ccccc23)NC(=O)[C@H](CC(=O)O)NC(=O)[C@H](Cc2ccc(OCC(=O)O)cc2)NC(=O)[C@H](CN)NC(=O)CSC[C@@H](C(=O)N[C@@H](C)C(N)=O)NC(=O)[C@H]([C@@H](C)O)NC(=O)[C@H](C(C)C)NC(=O)[C@H](CC2CCCCC2)NC(=O)[C@H](CCN)NC1=O [Compound 1357] ({CH2CO}-[Dap]Y(Carboxymethyl)DW[Chg][Bip][Cit][Orn][dL][Dab][Cha]VTCA-NH2; thioether N-14)
7.3 | CCCC[C@@H]1NC(=O)[C@H](Cc2c[nH]c3ccccc23)NC(=O)[C@H](CC(=O)O)NC(=O)[C@H](Cc2ccc(OCC(=O)O)cc2)NC(=O)[C@H](CN)NC(=O)CSC[C@@H](C(=O)N[C@@H](C)C(N)=O)NC(=O)[C@H]([C@@H](C)O)NC(=O)[C@H](C(C)C)NC(=O)[C@H](CC2CCCCC2)NC(=O)[C@H](CCN)NC(=O)[C@@H](CC(C)C)NC(=O)[C@H](CCCN)NC(=O)[C@H](CCCNC(N)=O)NC(=O)[C@H](Cc2ccc(-c3ccccc3)cc2)NC1=O [Compound 1358] ({CH2CO}-[Dap]Y(Carboxymethyl)DW[Nle][Bip][Cit][Orn][dL][Dab][Cha]VTCA-NH2; thioether N-14)
7.9 | CC(C)C[C@H]1NC(=O)[C@H](CCCN)NC(=O)[C@H](CCCNC(N)=O)NC(=O)[C@H](Cc2ccc(-c3ccccc3)cc2)NC(=O)[C@H](c2ccccc2)NC(=O)[C@H](Cc2c[nH]c3ccccc23)NC(=O)[C@H](CC(=O)O)NC(=O)[C@H](Cc2ccc(OCC(=O)O)cc2)NC(=O)[C@H](CN)NC(=O)CSC[C@@H](C(=O)N[C@@H](C)C(N)=O)NC(=O)[C@H]([C@@H](C)O)NC(=O)[C@H](C(C)C)NC(=O)[C@H](CC2CCCCC2)NC(=O)[C@H](CCN)NC1=O [Compound 1359] ({CH2CO}-[Dap]Y(Carboxymethyl)DW[Phg][Bip][Cit][Orn][dL][Dab][Cha]VTCA-NH2; thioether N-14)
10.8 | CCCCC[C@@H]1NC(=O)[C@H](Cc2c[nH]c3ccccc23)NC(=O)[C@H](CC(=O)O)NC(=O)[C@H](Cc2ccc(OCC(=O)O)cc2)NC(=O)[C@H](CN)NC(=O)CSC[C@@H](C(=O)N[C@@H](C)C(N)=O)NC(=O)[C@H]([C@@H](C)O)NC(=O)[C@H](C(C)C)NC(=O)[C@H](CC2CCCCC2)NC(=O)[C@H](CCN)NC(=O)[C@@H](CC(C)C)NC(=O)[C@H](CCCN)NC(=O)[C@H](CCCNC(N)=O)NC(=O)[C@H](Cc2ccc(-c3ccccc3)cc2)NC1=O [Compound 1360] ({CH2CO}-[Dap]Y(Carboxymethyl)DW[Ahp(2)][Bip][Cit][Orn][dL][Dab][Cha]VTCA-NH2; thioether N-14)
14.9 | CC(C)C[C@H]1NC(=O)[C@H](CCCN)NC(=O)[C@H](CCCNC(N)=O)NC(=O)[C@H](Cc2ccc(-c3ccccc3)cc2)NC(=O)[C@H](CC2CCCCC2)NC(=O)[C@H](Cc2c[nH]c3ccccc23)NC(=O)[C@H](CC(=O)O)NC(=O)[C@H](Cc2ccc(OCC(=O)O)cc2)NC(=O)[C@H](CN)NC(=O)CSC[C@@H](C(=O)N[C@@H](C)C(N)=O)NC(=O)[C@H]([C@@H](C)O)NC(=O)[C@H](C(C)C)NC(=O)[C@H](CC2CCCCC2)NC(=O)[C@H](CCN)NC1=O [Compound 1361] ({CH2CO}-[Dap]Y(Carboxymethyl)DW[Cha][Bip][Cit][Orn][dL][Dab][Cha]VTCA-NH2; thioether N-14)
52.9 | CC(C)C[C@H]1NC(=O)[C@H](CCCN)NC(=O)[C@H](CCCNC(N)=O)NC(=O)[C@H](Cc2ccc(-c3ccccc3)cc2)NC(=O)[C@H](C(C)(C)C)NC(=O)[C@H](Cc2c[nH]c3ccccc23)NC(=O)[C@H](CC(=O)O)NC(=O)[C@H](Cc2ccc(OCC(=O)O)cc2)NC(=O)[C@H](CN)NC(=O)CSC[C@@H](C(=O)N[C@@H](C)C(N)=O)NC(=O)[C@H]([C@@H](C)O)NC(=O)[C@H](C(C)C)NC(=O)[C@H](CC2CCCCC2)NC(=O)[C@H](CCN)NC1=O [Compound 1362] ({CH2CO}-[Dap]Y(Carboxymethyl)DW[Tle][Bip][Cit][Orn][dL][Dab][Cha]VTCA-NH2; thioether N-14)
34.5 | CC(C)C[C@H]1NC(=O)[C@H](CCCN)NC(=O)[C@H](CCCNC(N)=O)NC(=O)[C@H](Cc2ccc(-c3ccccc3)cc2)NC(=O)[C@H](C(C)C)NC(=O)[C@H](Cc2c[nH]c3ccccc23)NC(=O)[C@H](CC(=O)O)NC(=O)[C@H](Cc2ccc(OCC(=O)O)cc2)NC(=O)[C@H](CN)NC(=O)CSC[C@@H](C(=O)N[C@@H](C)C(N)=O)NC(=O)[C@H]([C@@H](C)O)NC(=O)[C@H](C(C)C)NC(=O)[C@H](CC2CC2)NC(=O)[C@H](CCN)NC1=O [Compound 1363]
57.6 | CC(C)C[C@H]1NC(=O)[C@H](CCCN)NC(=O)[C@H](CCCNC(N)=O)NC(=O)[C@H](Cc2ccc(-c3ccccc3)cc2)NC(=O)[C@H](C(C)C)NC(=O)[C@H](Cc2c[nH]c3ccccc23)NC(=O)[C@H](CC(=O)O)NC(=O)[C@H](Cc2ccc(OCC(=O)O)cc2)NC(=O)[C@H](CN)NC(=O)CSC[C@@H](C(=O)N[C@@H](C)C(N)=O)NC(=O)[C@H]([C@@H](C)O)NC(=O)[C@H](C(C)C)NC(=O)[C@H](CCc2ccccc2)NC(=O)[C@H](CCN)NC1=O [Compound 1364] ({CH2CO}-[Dap]Y(Carboxymethyl)DWV[Bip][Cit][Orn][dL][Dab][hPhe]VTCA-NH2; thioether N-14)
